Results from ChEMBL document CHEMBL1201862, “PubChem BioAssay data set” (2004).
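Values below derive from 48-hour exposures of cells grown in 96-well plates, with endpoints linearly interpolated between the two concentrations bracketing the appropriate inhibition level. The concentration for 50% growth inhibition is given as GI50.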 Active and inactive are the calls of the source. Cut-off read from the data, not from the text of the source: active = GI50 up to about 1.1 µM and inactive = higher.

Key:
Assay in all cases: DTP human tumour cell line panel, 48 h
A549 = tested on: A549
HL-60 = tested on: HL-60
HOP-62 = tested on: HOP-62
LOX IMVI = tested on: LOX IMVI
NCI-H226 = tested on: NCI-H226
NCI-H460 = tested on: NCI-H460
NCI-H522 = tested on: NCI-H522
RXF 393 = tested on: RXF 393
SF-268 = tested on: SF-268
SK-MEL-5 = tested on: SK-MEL-5
SK-OV-3 = tested on: SK-OV-3
SNB-75 = tested on: SNB-75
SR = tested on: SR
U-251 = tested on: U-251
MOLT-4 = tested on: MOLT-4
Hs-578T = tested on: Hs-578T
MDA-MB-231 = tested on: MDA-MB-231
PC-3 = tested on: PC-3

Structure (SMILES)	GI50 (A549)	GI50 (HL-60)	GI50 (HOP-62)	GI50 (LOX IMVI)	GI50 (NCI-H226)	GI50 (NCI-H460)	GI50 (NCI-H522)	GI50 (RXF 393)	GI50 (SF-268)	GI50 (SK-MEL-5)	GI50 (SK-OV-3)	GI50 (SNB-75)	GI50 (SR)	GI50 (U-251)	GI50 (MOLT-4)	GI50 (Hs-578T)	GI50 (MDA-MB-231)	GI50 (PC-3)
O=c1nc(NC2CCCCO2)ccn1CCO (stereo not drawn)	> 100 µM (inactive)	> 100 µM (inactive)	> 100 µM (inactive)	> 100 µM (inactive)	> 100 µM (inactive)	> 100 µM (inactive)	> 100 µM (inactive)	> 100 µM (inactive)	> 100 µM (inactive)	> 100 µM (inactive)	> 100 µM (inactive)	> 100 µM (inactive)	> 100 µM (inactive)	> 100 µM (inactive)				
CCn1c(C)nn2c(=O)c3ccccc3nc2c1=O	> 100 µM (inactive)	> 100 µM (inactive)	> 100 µM (inactive)	> 100 µM (inactive)		> 100 µM (inactive)				> 100 µM (inactive)	> 100 µM (inactive)	> 100 µM (inactive)		> 100 µM (inactive)	> 100 µM (inactive)			
N#Cc1ccccc1NC(=O)/C(=N\Nc1ccc([N+](=O)[O-])cc1)C1C(=O)NC(=O)NC1=O	> 100 µM (inactive)	> 100 µM (inactive)	> 100 µM (inactive)	> 100 µM (inactive)		> 100 µM (inactive)	92.3 µM (inactive)	> 100 µM (inactive)	> 100 µM (inactive)	> 100 µM (inactive)	> 100 µM (inactive)	> 100 µM (inactive)		> 100 µM (inactive)	> 100 µM (inactive)			
C=C(CN(C)C)C(=O)c1ccccc1C	> 100 µM (inactive)	5.52 µM (inactive)	> 100 µM (inactive)	> 69.5 µM (inactive)	> 100 µM (inactive)	> 100 µM (inactive)	5.69 µM (inactive)	12.9 µM (inactive)	77.1 µM (inactive)	> 86.5 µM (inactive)	> 100 µM (inactive)	> 71.6 µM (inactive)	14.2 µM (inactive)	> 100 µM (inactive)	7.52 µM (inactive)			
CC1=NN(c2ccccc2)C(=O)C1/N=N/c1ccc(Br)cc1C (stereo not drawn)	40.5 µM (inactive)	> 100 µM (inactive)	27.9 µM (inactive)		35.9 µM (inactive)	> 100 µM (inactive)		50.5 µM (inactive)	> 100 µM (inactive)	> 100 µM (inactive)	32.9 µM (inactive)	19.1 µM (inactive)		38.3 µM (inactive)	> 100 µM (inactive)			
CC(C)c1ccc(O)c(Cc2cc(C(C)C)cc(Cc3cc(C(C)C)ccc3O)c2O)c1	1.9 µM (inactive)	2 µM (inactive)	1.69 µM (inactive)		1.54 µM (inactive)	1.83 µM (inactive)	1.57 µM (inactive)		1.82 µM (inactive)	1.62 µM (inactive)	1.68 µM (inactive)	2.16 µM (inactive)	1.88 µM (inactive)	1.69 µM (inactive)	1.78 µM (inactive)			
O=C(c1ccc(Cl)cc1)N(C(=S)N1CCN(c2ccccc2)CC1)C1CCCCC1	> 100 µM (inactive)	94.6 µM (inactive)	> 100 µM (inactive)	79.4 µM (inactive)	1.03 µM (active)	> 100 µM (inactive)	> 100 µM (inactive)	> 100 µM (inactive)	> 100 µM (inactive)	> 100 µM (inactive)	> 100 µM (inactive)	85.3 µM (inactive)	67.6 µM (inactive)	> 100 µM (inactive)	54.2 µM (inactive)			
CCN(CC)c1ccc(/N=N/c2ccc(-c3nc4ccc[n+](C)c4o3)cc2)cc1	9.77 µM (inactive)	2.06 µM (inactive)	16.3 µM (inactive)	4.3 µM (inactive)	11.5 µM (inactive)	12.6 µM (inactive)	4.93 µM (inactive)	10.7 µM (inactive)	12.6 µM (inactive)	2.97 µM (inactive)	19.5 µM (inactive)	11.6 µM (inactive)	3.69 µM (inactive)	4.57 µM (inactive)	3.66 µM (inactive)			
O=C(Nc1c(Cl)cc([N+](=O)[O-])cc1Cl)C(=O)C(C(=O)c1ccncc1)C1OC(=O)c2ccccc21 (stereo not drawn)	> 100 µM (inactive)	> 100 µM (inactive)	> 100 µM (inactive)	> 100 µM (inactive)	> 100 µM (inactive)	> 100 µM (inactive)	> 100 µM (inactive)	> 100 µM (inactive)	> 100 µM (inactive)		> 100 µM (inactive)	35 µM (inactive)	> 100 µM (inactive)	> 100 µM (inactive)	> 100 µM (inactive)			
Cc1cc2c(cc1C)[n+]([O-])c(C(=O)CC(=O)C(=O)Nc1ccccc1C(C)C)c(C)[n+]2[O-]	> 100 µM (inactive)	> 100 µM (inactive)	> 100 µM (inactive)	> 100 µM (inactive)	> 100 µM (inactive)	> 100 µM (inactive)	> 100 µM (inactive)	> 100 µM (inactive)	> 100 µM (inactive)	> 100 µM (inactive)	> 100 µM (inactive)	> 100 µM (inactive)	> 100 µM (inactive)	> 100 µM (inactive)	> 100 µM (inactive)			
CC(C)(C)C(=O)C(Cc1ccccc1)C(=O)C(C)(C)C	> 100 µM (inactive)	30.5 µM (inactive)	> 100 µM (inactive)	> 100 µM (inactive)	> 100 µM (inactive)	> 100 µM (inactive)	98.4 µM (inactive)	98.6 µM (inactive)	> 100 µM (inactive)	> 100 µM (inactive)	23.2 µM (inactive)	> 100 µM (inactive)	51.3 µM (inactive)	> 100 µM (inactive)	50.7 µM (inactive)	> 100 µM (inactive)	> 100 µM (inactive)	46.7 µM (inactive)
COC(=O)c1ccccc1N(C(=O)c1ccccc1)c1ccccc1C	61.9 µM (inactive)	19.5 µM (inactive)	> 100 µM (inactive)	48.1 µM (inactive)	74.3 µM (inactive)	29.8 µM (inactive)	30.7 µM (inactive)	30.7 µM (inactive)	> 100 µM (inactive)	30.8 µM (inactive)	24.3 µM (inactive)	> 100 µM (inactive)	28.2 µM (inactive)	48.2 µM (inactive)	22.4 µM (inactive)			
O=[N+]([O-])c1ccc(Cl)c(C2CC(c3cccc4ccccc34)=Nc3ccccc3S2)c1 (stereo not drawn)	28.7 µM (inactive)	5.21 µM (inactive)	55.7 µM (inactive)	20 µM (inactive)	27.6 µM (inactive)	26.5 µM (inactive)	14.3 µM (inactive)	8.91 µM (inactive)	18.7 µM (inactive)	16.7 µM (inactive)	> 84.7 µM (inactive)	0.195 µM (active)	3.58 µM (inactive)	20.5 µM (inactive)	6.75 µM (inactive)			
O=C(/C=C1\NC(=O)c2ccccc2N1)c1ccncc1	> 100 µM (inactive)	> 100 µM (inactive)	> 100 µM (inactive)		> 100 µM (inactive)	> 100 µM (inactive)	> 100 µM (inactive)		> 100 µM (inactive)	> 100 µM (inactive)	> 100 µM (inactive)	45.9 µM (inactive)	> 100 µM (inactive)	> 100 µM (inactive)	> 100 µM (inactive)			
O=c1c2cc(Cl)ccc2sc2cccc(Cl)c12	> 100 µM (inactive)	> 100 µM (inactive)	> 100 µM (inactive)	> 100 µM (inactive)	> 100 µM (inactive)	> 100 µM (inactive)	> 100 µM (inactive)	> 100 µM (inactive)	> 100 µM (inactive)				> 100 µM (inactive)	> 100 µM (inactive)	> 100 µM (inactive)			
c1ccc2c3c([nH]c2c1)C1C2CCCCN2C(c2ccncc2)N1CC3 (stereo not drawn)	32.2 µM (inactive)	21.5 µM (inactive)	52.5 µM (inactive)	37.2 µM (inactive)		29.6 µM (inactive)	39.2 µM (inactive)	29.3 µM (inactive)	> 10 µM (inactive)	43 µM (inactive)	36.6 µM (inactive)	22.8 µM (inactive)	33.9 µM (inactive)	39.9 µM (inactive)	43.3 µM (inactive)			
CCOC(=O)Nc1ccc(S(=O)(=O)OC)cc1.CCOC(=O)Nc1ccc(S(=O)(=O)OC)cc1.NNC(=O)c1ccncc1	> 50 µM (inactive)	> 50 µM (inactive)	> 50 µM (inactive)	> 50 µM (inactive)	> 50 µM (inactive)	> 50 µM (inactive)			> 50 µM (inactive)	> 50 µM (inactive)	> 50 µM (inactive)	> 50 µM (inactive)		11.1 µM (inactive)	> 50 µM (inactive)			
COC(=O)CC(C(C(=O)OC)C(=O)OC)N1C(=O)OCC1c1ccccc1 (stereo not drawn)	> 100 µM (inactive)	> 100 µM (inactive)	> 100 µM (inactive)	> 100 µM (inactive)	> 100 µM (inactive)	> 100 µM (inactive)	> 100 µM (inactive)	> 100 µM (inactive)	> 100 µM (inactive)	> 100 µM (inactive)	> 100 µM (inactive)	> 100 µM (inactive)		> 100 µM (inactive)	> 100 µM (inactive)			
COc1ccccc1/C=C1\CCC(CCN(C)C)(C2=CCCC2)C1=O (stereo not drawn)	23.9 µM (inactive)	21.6 µM (inactive)	17.3 µM (inactive)	17.1 µM (inactive)	19.5 µM (inactive)	14.8 µM (inactive)	14.1 µM (inactive)	12.8 µM (inactive)	19.4 µM (inactive)	13.8 µM (inactive)		17.4 µM (inactive)	31.6 µM (inactive)	16.6 µM (inactive)	20.7 µM (inactive)			
